Patent US20180200392A1, “DETECTION AND TREATMENT OF RENAL CELL CARCINOMA WITH A SLC6A3 LIGAND LINKED TO A LABEL, CYTOTOXIC OR IMMUNO[…]” (Akuru Pharma AB, priority 2015, published 2018)

How the values were obtained:
[1] = in vivo; cited from earlier work
KMRC-3 cells = assay: SPECT/CT imaging of mice with orthotopically injected KMRC-3 ccRCC cells; type: in vivo; settings: 5.36 MBq injected 13 weeks after cell injection, imaged after 1 h and 35 min, FIG. 4
Description: FIG. 4: SPECT/CT images of a mouse injected with 5.36 MBq (^123I-Ioflupan).
ccRCC cell line KMRC-3 cells were injected orthotopically in mice, 2*10^6 cells in 40 ul PBS. After 13 weeks the mice were injected with 5.36 MBq ^123I-Ioflupan and analysed by SPECT/CT imaging after 1 h and 35 min.

ccRCC cell lines = settings: 7 nM [3H]dopamine; uptake correlates with SLC6A3 expression level
Description: (§1) Uptake experiments were performed in cells cultivated in 12-well plates at 37° C. The cells of interest were seeded at 80.000 cells/well 48 h before the uptake experiment was performed. The wells were washed in 1×PBS, followed by a wash in 1 ml of assay buffer (Hanks Balanced Salt Solution (HBSS) with CaCl2 and MgCl2, without phenol red supplemented with 10 mM HEPES, pH 7.4) at 37° C. and then incubated with 0.5 ml of buffer for 5 min. […] All uptake experiments were stopped by removing the uptake buffer and adding 1 ml of ice-cold assay buffer to each well and immediately aspirating the buffer and washing three additional times with 1 ml of ice-cold buffer. The incorporated radioactivity was extracted by solubilising the cells with 1% Triton-X for 1 h at R.T, 6 ml of scintillation fluid was thereafter added. The amount of radioactivity was measured with a Tri-carb 2810TR liquid scintillation analyzer (Perkin Elmer).

SLC6A3 = SLC6A3 (Homo sapiens, UniProt Q01959); assay: [3H]dopamine uptake in ccRCC cell lines in the presence of specific SLC6A3 inhibitors; settings: GBR12935 30 nM (SKRC10); GBR12909 10-90 nM (KMRC3, SNU-349); 1 h pre-incubation, 5 min uptake; FIG. 8 A-C
SLC6A3, sequence (Q01959 whole entry): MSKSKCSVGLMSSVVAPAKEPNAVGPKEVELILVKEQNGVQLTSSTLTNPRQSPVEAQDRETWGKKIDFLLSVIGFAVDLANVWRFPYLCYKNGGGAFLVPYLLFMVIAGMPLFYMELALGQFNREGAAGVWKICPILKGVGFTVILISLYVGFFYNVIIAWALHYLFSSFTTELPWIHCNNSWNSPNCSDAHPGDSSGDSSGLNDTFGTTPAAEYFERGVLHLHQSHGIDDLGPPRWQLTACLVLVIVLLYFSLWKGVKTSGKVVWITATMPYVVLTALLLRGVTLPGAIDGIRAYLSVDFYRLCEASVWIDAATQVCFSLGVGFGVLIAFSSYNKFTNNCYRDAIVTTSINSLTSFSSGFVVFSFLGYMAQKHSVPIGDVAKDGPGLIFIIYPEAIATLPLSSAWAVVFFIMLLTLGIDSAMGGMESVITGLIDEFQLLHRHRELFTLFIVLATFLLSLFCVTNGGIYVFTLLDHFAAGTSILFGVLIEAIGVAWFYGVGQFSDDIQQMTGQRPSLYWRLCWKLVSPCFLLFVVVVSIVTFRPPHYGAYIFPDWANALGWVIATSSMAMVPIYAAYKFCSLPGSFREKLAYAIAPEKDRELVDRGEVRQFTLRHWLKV
Description: Data presented as mean±SEM.
as §1

Description for primary ccRCC cells: as §1

Compound: NCCc1ccc(O)c(O)c1 [unlabelled dopamine, dopamine]
- [3H]dopamine uptake of primary ccRCC tumor cells in response to competitive unlabelled dopamine (primary ccRCC cells; 7 nM [3H]dopamine with 2 uM or 20 uM unlabelled dopamine for 5 min, FIG. 7A-B): decreased uptake

Compound: Fc1ccc(C(OCCC2CCN(Cc3ccc(I)cc3)CC2)c2ccc(F)cc2)cc1 [FMIP, 4-(2-(bis(4-fluorophenyl)methoxy)ethyl)-1-(4-iodobenzyl)piperidine]
- passage of the blood-brain barrier [1]: does not pass the blood-brain barrier

Compound: COC(=O)[C@@H]1C2CCC(C[C@@H]1c1ccc(I)cc1)N2CCCF (stereo partly drawn) [Ioflupane (^123I), [^123I] N-ω-fluoropropyl-2β-carbomethoxy-3β-(4-iodophenyl)nortropane]
- uptake in contralateral kidney lacking injected tumor cells (SPECT/CT) (KMRC-3 cells): no enhanced uptake
- uptake in kidney orthotopically injected with KMRC-3 cells (SPECT/CT) (KMRC-3 cells): clearly display enhanced uptake
- uptake in contralateral kidney lacking injected tumor cells (SPECT/CT) (KMRC-3 cells; listed as 123I-Ioflupan): no signal could be detected
- uptake in kidney orthotopically injected with KMRC-3 cells (SPECT/CT) (KMRC-3 cells; listed as 123I-Ioflupan): uptake

Compound: NCCc1ccc(O)c(O)c1 [[H^3]dopamine]
- uptake of [3H]dopamine by primary ccRCC cells compared to primary normal cortex cell (primary ccRCC cells; 7 nM [3H]dopamine, 1-20 min, 37° C., FIG. 3 and FIG. 7A): enhanced uptake
- uptake of [3H]dopamine by ccRCC cell lines (ccRCC cell lines): take up

Compound: c1ccc(CCCN2CCN(CCOC(c3ccccc3)c3ccccc3)CC2)cc1 [GBR12935]
- amount of [3H]-dopamine taken up by ccRCC cells in presence of inhibitor (SLC6A3): clearly diminish
